Laboratory results taken from patent publication US20130059324A1, “SYSTEMS AND METHODS FOR MECHANICALLY STRAINED CELL CULTURE” (THE UNIVERSITY OF KANSAS, priority 2010, published 2013).
Where two headings read alike, the source gives them in different places.

Assays:
[1] = system: cells in a static monolayer culture; assay: IC90 in static monolayer culture (tested concentration); format: cell-based; conditions: concentration that inhibits the growth of 90% of the cells in a static monolayer culture
Procedure: Table 1 includes a list of investigated chemotherapeutic drugs, their mechanisms of action and the tested concentrations.
(§1) After 72 hours of initial seeding, one of the five drugs was added to Treatments 3 and 6 of each cell line. […] The IC90, concentration of the drug that inhibits the growth of 90% of the cells in a static monolayer culture, was used to assure a significant inhibition in the absence of simulated forces. To insure comparability, an aliquot of 1 ml of media without the drug was added to each well in Treatments 2 and 5. After adding the drug or 1 ml of media, the plates from Treatments 5 and 6 were placed back on the baseplate and subjected to the same force profile as before for the remaining 72 hours. Plates from Treatments 2 and 3 (without forces) were placed in the same incubator for the remaining 72 hours.

A549 cells [2] = assay: Drug exposure with or without simulated forces, 6-well Bioflex plates, live cell count and exponential growth model; format: cell-based, human; conditions: for Growth Rates, With forces / Growth Rates, Without forces: drug at IC90 for 3 days; for Growth Rates, With forces: 20% maximum strain, 15 cycles/minute; for Growth Rates, Without forces: no forces, negative = reduction in viable cell count; for Effectiveness of The Drug, Without forces (E) / Effectiveness of The Drug, With forces (Ef): percentage reduction in live cell counts; for Effectiveness of The Drug, Without forces (E): 3-day drug exposure at IC90, no forces; for Effectiveness of The Drug, With forces (Ef): 3-day drug exposure at IC90, simulated forces
Procedure: (§2) Treatments 1, 2 and 3 served as unstretched controls for Treatments 4, 5 and 6, respectively. For each cell line and drug, all treatments were independently repeated at least 3 times on different days, with 3 replicates per Treatments 1 and 4 (n=9) and 5 replicates per all other treatments (n=15).
Cells were passaged in 75 cm2 culture flasks at 37° C. in 5% CO2, and trypsinized using TryplE™ Express (Gibco) containing phenol red.
Cells were plated in 6-well Bioflex® plates (Flexcell® International Corporation, Hillsborough, N.C.). Each well of the plate has a flexible elastic membrane coated with a thin layer of type I collagen. Type I collagen was chosen since it more accurately represents the physiology of lung tumor cells in vivo. […] In Treatments 1, 2 and 3, NCI-H358 and A549 cells were plated at a density of 100,000 and 20,000 cells/well in 2 ml of corresponding media, respectively. For treatments involving simulated forces (Treatments 4-6), NCI-H358 and A549 cells were plated at a density of 170,000 and 35,000 cells/well, respectively.
(§3) After allowing the cells to adhere to the membrane for 24 hours, the plates assigned for simulated forces were stretched using the FX-4000 Tension plus unit (Flexcell® International Corporation, Hillsborough, N.C.). The Flexcell unit was configured to deliver an alternating positive and negative pressure beneath the cell culture surfaces. Negative pressure pulls the culture surface down over a stationary Delrin post on the baseplate, delivering a uniform biaxial strain to the cells, and subsequent application of positive pressure releases this distension (FIGS. 9A and 9B.) In this manner, the alternating positive and negative pressure simulates forces experienced during respiration. Culture plates experiencing forces were fitted with rubber gaskets and placed on circular loading stations in the baseplate.
After 72 hours of initial seeding, one of the five drugs was added to Treatments 3 and 6 of each cell line. […] To insure comparability, an aliquot of 1 ml of media without the drug was added to each well in Treatments 2 and 5. After adding the drug or 1 ml of media, the plates from Treatments 5 and 6 were placed back on the baseplate and subjected to the same force profile as before for the remaining 72 hours. Plates from Treatments 2 and 3 (without forces) were placed in the same incubator for the remaining 72 hours.
(§4) Cells were trypsinized and counted at the end of day 3 in Treatments 1 and 4, and at the end of day 6 in the other treatments, using a Beckman Coulter Vi-Cell Analyzer (Beckman Coulter, Fullerton, Calif.). To examine changes in morphology, microphotographs of A549 and NCI-H358 cells were taken at the end of Treatments 1, 2, 4 and 5 using an Olympus inverted microscope and a 10× objective.
The standard exponential cell growth model (28) was used to describe the changes in live cell counts after each treatment. According to this model, the cell count (e.g., N) at a particular time (e.g., t), is given by the equation:
N* is the initial cell count and λ is the cell growth rate. For each cell line, the following cell growth rates were estimated: λ=growth rate in the absence of forces and drugs, λd=growth rate in the presence of a particular drug but no forces, λXf=growth rate in the presence of forces but no drugs; and λfd=growth rate in the presence of forces and a particular drug. The growth rates λd and λfd were estimated for each tested drug. Using these growth rates and the exponential growth model, the final cell counts were mathematically modeled for each treatment under various conditions (FIG. 8). For each cell line, a linear regression model that combined the information from the 5 investigated drugs was built using Stata Statistical Software (StataCorp LP, Texas) after log-transforming the six equations listed in FIG. 8. The regression coefficients in the model were the growth rates.

NCI-H358 cells = assay: as above; format: cell-based, human; conditions: for Growth Rates, With forces / Growth Rates, Without forces: drug at IC90 for 3 days; for Growth Rates, With forces: 20% maximum strain, 15 cycles/minute; for Growth Rates, Without forces: no forces; for Effectiveness of The Drug, Without forces (E) / Effectiveness of The Drug, With forces (Ef): percentage reduction in live cell counts; for Effectiveness of The Drug, Without forces (E): 3-day drug exposure at IC90, no forces; for Effectiveness of The Drug, With forces (Ef): 3-day drug exposure at IC90, simulated forces
From the text: as §2
The NCI-H358 (ATCC® CRL-5807) and A549 (ATCC® CCL-185) cell lines were obtained from American Type Culture Collection (ATCC, Manassas, Va.) and cultured in RPMI-1640 (NCI-H358) and HAM's F12K (A549) media containing 10% Fetal Bovine Serum (Sigma Aldrich, St. Louis, Mo.) and 1% Penicillin Streptomycin (Sigma Aldrich). Cells were passaged in 75 cm2 culture flasks at 37° C. in 5% CO2, and trypsinized using TryplE™ Express (Gibco) containing phenol red.
Cells were plated in 6-well Bioflex® plates (Flexcell® International Corporation, Hillsborough, N.C.). Each well of the plate has a flexible elastic membrane coated with a thin layer of type I collagen. Type I collagen was chosen since it more accurately represents the physiology of lung tumor cells in vivo. The Flexcell is not configured for drug studies as described herein, and had to be modified as described herein. […] Therefore, to have the same number of cells in culture at the time of drug exposure, initial seeding densities for treatments not involving simulated forces (Treatments 1-3) and those involving forces (Treatments 4-6) were adjusted for each cell line. In Treatments 1, 2 and 3, NCI-H358 and A549 cells were plated at a density of 100,000 and 20,000 cells/well in 2 ml of corresponding media, respectively. For treatments involving simulated forces (Treatments 4-6), NCI-H358 and A549 cells were plated at a density of 170,000 and 35,000 cells/well, respectively.
as §3, with “baseplate. […] Cells were preconditioned with mechanical forces for 48 hours, in an incubator at 37° C., 5% CO2 and 95% relative humidity.” for “baseplate.”
as §1, §4
The standard exponential cell growth model (28) was used to describe the changes in live cell counts after each treatment. […]

H358 cells [3] = assay: Prototype 96-well plate, viable cell count (Vi-Cell) with and without mechanical forces; format: cell-based, human; conditions: for Effect of mechanical forces on viable cell count / cytotoxicity: 24 hours drug exposure, prototype 96-well plate; for Viable Cell Count after 24 hours of drug exposure, With forces (Ef) / Viable Cell Count after 24 hours of drug exposure, Without forces (E): drug at IC90, 24 hours; for Viable Cell Count after 24 hours of drug exposure, With forces (Ef): mechanical forces; for Viable Cell Count after 24 hours of drug exposure, Without forces (E): no forces
Procedure: (§6) After allowing the cells to adhere to the flexible membrane of the 96 well plate for 24 hours, the loading pins and the system described in FIG. 7 to implement mechanical strain were used to deliver 20% maximum strain for 2 seconds to the plate assigned for mechanical forces (+M Group), followed by 2 seconds of rest (15 cycles per minute with an average strain of 10% per cycle) in keeping with a normal human respiration.
In a parallel experiments, the cells were treated with anti-tumor drug after 72 hours of initial seeding (after 48 hours of mechanical stretching). The drug was dissolved in dimethyl sulfoxide (DMSO) at stock concentration and added to the respective media. An aliquot of 50 μl of drug stock solution was added to the well containing 100 μl of media (a 1:3 dilution) in a drug plate to get the desired IC90 concentration of the drug (Table 1). The IC90 concentrations of the drugs were then added to prototype plate.
(§7) The +M Group was subjected to continuous mechanical stretching while the −M Group plate was placed in the same incubator for additional 24 hours.
In order to quantify viability, 6 wells per treatment group for ViCell counter and 6 wells per condition for MTS were assigned to determine the cell viability. Using Vi-Cell counter, assigned wells were filled with extra 210 μl of media to keep the volume constant in all the wells.

A549 cells [4] = assay: Prototype 96-well plate, MTS assay with and without mechanical forces; format: cell-based, human
Procedure: (§5) The prototype plate was read using the Biotek plate reader at the wavelength of 490 nm until the media only wells absorbance reached 1.0. For the +M group plate, 30 ul of MTS was added to the assigned wells and kept in the incubator for the same amount of time that required for the −M group to develop and read at the same wavelength.

H358 cells [5] = assay: as above; format: cell-based, human; conditions: drug at IC90, 24 hours, 490 nm; for MTS absorbance after 24 hours of drug exposure, With forces (Ef): mechanical forces; for MTS absorbance after 24 hours of drug exposure, Without forces (E): no forces
Procedure: as §5

A549 cells [6] = system: A549 cells
Procedure: as §6
(§8) In a parallel experiments, the cells were treated with anti-tumor drug after 72 hours of initial seeding (after 48 hours of mechanical stretching). The drug was dissolved in dimethyl sulfoxide (DMSO) at stock concentration and added to the respective media. […] The IC90 concentrations of the drugs were then added to prototype plate.
as §7
(§9) In order to quantify viability, 6 wells per treatment group for ViCell counter and 6 wells per condition for MTS were assigned to determine the cell viability. Using Vi-Cell counter, assigned wells were filled with extra 210 μl of media to keep the volume constant in all the wells. Media from the assigned wells were transferred into a 24-well plate, and the well location was recorded. About 50 μl of trypLE was added to each well and allowed to trypsinize for a maximum of ten minutes. A small amount of media from the 24-well plate was transferred back into corresponding wells of the prototype plate to collect detached cells.
(§10) Media and cells were transferred back into the corresponding well of the 24-well plate. All wells were brought to a final volume of 1.25 mL with PBS and mixed well. About 1 ml of this cell suspension was transferred to ViCell counter to determine the number of viable cells.

A549 cells [7] = assay: Prototype 96-well plate, viable cell count (Vi-Cell) with and without mechanical forces
Procedure: as §6, §8, §7, §9, §10

| Compound | IC90 [1] [µM] | Growth Rates, With forces (A549 cells [2]) [per day] | Growth Rates, Without forces (A549 cells [2]) [per day] | Effectiveness of The Drug, Without forces (E) (A549 cells [2]) [%] | Effectiveness of The Drug, With forces (Ef) (A549 cells [2]) [%] | Growth Rates, With forces (NCI-H358 cells) [per day] | Growth Rates, Without forces (NCI-H358 cells) [per day] | Effectiveness of The Drug, Without forces (E) (NCI-H358 cells) [%] | Effectiveness of The Drug, With forces (Ef) (NCI-H358 cells) [%] | Effect of mechanical forces on viable cell count / cytotoxicity (H358 cells [3]) | Viable Cell Count after 24 hours of drug exposure, With forces (Ef) (H358 cells [3]) | Viable Cell Count after 24 hours of drug exposure, Without forces (E) (H358 cells [3]) | MTS absorbance after 24 hours of drug exposure, With forces (Ef) (H358 cells [5]) | MTS absorbance after 24 hours of drug exposure, Without forces (E) (H358 cells [5]) | also measured |
| --- | --- | --- | --- | --- | --- | --- | --- | --- | --- | --- | --- | --- | --- | --- | --- |
| COc1cccc2c1C(=O)c1c(O)c3c(c(O)c1C2=O)C[C@@](O)(C(=O)CO)C[C@@H]3O[C@H]1C[C@H](N)[C@H](O)[C@H](C)O1 [Doxorubicin] | 30 | −0.268 | −0.170 | 90.7 | 78.7 | −0.357 | −0.031 | 72.7 | 73.9 | decrease in the ability | 7500.0 | 17750.0 | 0.488 | 0.629 | MTS absorbance after 24 hours of drug exposure, With forces (Ef) (A549 cells [4]): 0.430; MTS absorbance after 24 hours of drug exposure, Without forces (E) (A549 cells [4]): 0.697; Effect of mechanical forces on viable cell count / cytotoxicity (A549 cells [6]): Statistically significant reduction |
| N.N.[Cl][Pt][Cl] [Cisplatin] | 50 | −0.211 | −0.204 | 91.6 | 74.7 | −0.233 | −0.027 | 72.4 | 62.1 |  |  |  |  |  | Effectiveness of The Drug, Without forces (E) (A549 cells [2]; listed as P00004): 91.6%; Effectiveness of The Drug, With forces (Ef) (A549 cells [2]; listed as P00004): 74.7% |
| COc1cc2c(Nc3ccc(Br)cc3F)ncnc2cc1OCC1CCN(C)CC1 [Zactima] | 50 | −0.398 | −0.055 | 86.8 | 85.6 | −0.833 | −0.163 | 81.6 | 93.7 | decrease in the ability | 11000.0 | 22000.0 | 0.368 | 0.536 | Effectiveness of The Drug, Without forces (E) (NCI-H358 cells; listed as P00006): 81.6%; Effectiveness of The Drug, With forces (Ef) (NCI-H358 cells; listed as P00006): 93.7%; MTS absorbance after 24 hours of drug exposure, With forces (Ef) (A549 cells [4]; A549, drug at IC90, 24 hours, 490 nm, mechanical forces): 0.307; MTS absorbance after 24 hours of drug exposure, Without forces (E) (A549 cells [4]; A549, drug at IC90, 24 hours, 490 nm, no forces): 0.495; Effect of mechanical forces on viable cell count / cytotoxicity (A549 cells [7]; 24 hours drug exposure, prototype 96-well plate): remained unaffected; Viable Cell Count after 24 hours of drug exposure, With forces (Ef) (A549 cells [7]; drug at IC90, 24 hours, mechanical forces): 15625.0; Viable Cell Count after 24 hours of drug exposure, Without forces (E) (A549 cells [7]; drug at IC90, 24 hours, no forces): 23333.3 |
